Experimental findings from ChEMBL document CHEMBL3864144, “Cochlearoids F-K: Phenolic meroterpenoids from the fungus Ganoderma cochlear and their renoprotective activity” (Bioorg Med Chem Lett, 2016) are described below.

The nature of series [1]: Cytotoxicity against human HKC8 cells assessed as decrease in cell viability at 2.5 uM after 24 hrs by MTT assay. It counts as toxicity, cell-based. The conditions noted are these: hkc8, 24 h.
Another series concerns HKC8. In words: Renoprotective activity in human HKC8 cells assessed as inhibition of TGF-beta1-induced fibronectin production preincubated for 1 hr followed by TGF-beta1 induction measured after 24 hrs by solid-phase sandwich ELISA. It counts as functional, cell-based. A general note: An ELISA detects its analyte on a solid surface through an enzyme-linked reagent.
Series [2] can be described thus: Cytotoxicity against human HKC8 cells assessed as decrease in cell viability at 20 uM after 24 hrs by MTT assay. It counts as toxicity, cell-based. Particulars: hkc8, 24 h. (In general: Tetrazolium assays rely on reduction of a dye to a coloured formazan, in cell work by metabolically active cells.)
A short description of series [3]: Cytotoxicity against human HKC8 cells assessed as decrease in cell viability at 5 uM after 24 hrs by MTT assay. It counts as toxicity, cell-based. The conditions noted are these: hkc8, 24 h.
Series [4] in a line: Cytotoxicity against human HKC8 cells assessed as decrease in cell viability at 10 uM after 24 hrs by MTT assay. It counts as toxicity, cell-based. Particulars: hkc8, 24 h.

Active and inactive are the calls of the source. The calls are words filed in the database; no cut-off is given here.

Consider `CC(C)=CCC/C(C)=C/CC/C(=C/Cc1cc(O)cc2c1oc(=O)c1c(O)ccc(O)c12)C(=O)O`, for which the Activity result in series [1] is listed as “Non-Toxic”; in series [2] it was “Toxic”. In the series with HKC8, the inhibition entry was “Active”.

Take `CC(C)=CCC/C(C)=C/CC/C(=C/Cc1cc2oc(=O)c3c(O)ccc(O)c3c2cc1O)CO`: the Activity result is on record as “Non-Toxic” in series [1] and “Toxic” in series [2].

Consider `CC(C)=CCC/C(C)=C/CC/C(=C/Cc1cc2oc(=O)c(CC/C=C(\C)CCC=C(C)C)c(C(=O)c3cc(O)ccc3O)c2cc1O)CO`, for which the Activity entry in series [3] is on record as “Non-Toxic”; in series [2], “Toxic”. In addition, in the series on HKC8, the inhibition entry is “Active”.

Take `CC(C)=CCC/C(C)=C/CC/C(=C/Cc1cc(O)cc2c1oc(=O)c1c(O)ccc(O)c12)CO`: the inhibition entry with HKC8 is “Active”. Also, the Activity result in series [2] is given as “Toxic”; in series [4], “Non-Toxic”.

Consider `CC(C)=CCC/C(C)=C/CC/C(=C/Cc1cc(O)cc2c(C(=O)c3cc(O)ccc3O)c(CC/C=C(\C)CCC=C(C)C)c(=O)oc12)CO`, for which the Activity entry is listed as “Non-Toxic” in series [3] and “Toxic” in series [2]. For the same compound, the inhibition entry with HKC8 was “Active”.

Regarding `CC(C)=CCC/C(=C/Cc1cc2oc(=O)c3c(O)ccc(O)c3c2cc1O)C(=O)O`, the results for the Activity result in series [3] and in series [2] were “Non-Toxic” and “Toxic”, respectively. The inhibition entry in the series on HKC8 was “Active”.
